Measurements published in US20060166941A1, “Treatment and/or prevention of non-viral epithelial damage” (Epistem Limited, priority 2003, published 2006).
“And” between values parts separate entries of the source, which are not always exact repeats. Equal entries are not always repeated. Structures can show the parent of a compound that is named as a salt.

Tests used:
[1] = test system: clonogenic stem cells of the digestive epithelium; assay: In vivo protection of intestinal epithelium clonogenic stem cells, chemotherapy drug damage, independent experiment 2; parameters: species or system mice
Protocol: In Vivo Protection of Intestinal Epithelium Clonogenic Stem Cells—Chemotherapy Drug Damage—Independent Experiment 2.
The data presented in Example 4 were expanded in the following study, in which the ability of foscarnet (phosphonoformic acid trisodium salt hexahydrate) to prevent cytotoxic damage to clonogenic stem cells of the digestive epithelium was investigated using the following experiment.
The model of cytotoxic insult used was treatment with 2 doses of 5-Flurouracil 6 hours apart at 400 mg of 5-Fluorouracil/kilogram bodyweight. Such cytotoxic treatment provides a model of chemotherapy administered to patients undergoing treatment for cancer.
8 experimental groups, each of six mice, were established as set out below:
Group 1: Received intra-peritoneal injection, containing 50 mg foscarnet/kilogram bodyweight, in sterile water, one hour prior to the first cytotoxic treatment. Received one further identical injection on each of the three days following cytotoxic treatment.
Group 2: Received intra-peritoneal injection, containing 50 mg foscarnet/kilogram bodyweight, in sterile water, one hour prior to the first cytotoxic treatment.
Group 3: Received intra-peritoneal injection, containing 50 mg foscarnet/kilogram bodyweight, in sterile water on each of the three days following cytotoxic treatment.
Group 4: Received intra-peritoneal injection, containing 50 mg foscarnet/kilogram bodyweight, in sterile water, 5 minutes prior to the first cytotoxic treatment. Received one further identical injection on each of the three days following cytotoxic treatment.
Group 5: Vehicle control. Received intra-peritoneal injection, of sterile water, one hour prior to the first cytotoxic treatment. Received one further identical injection on each of the days following cytotoxic treatment.
Group 6: Vehicle control. Received intra-peritoneal injection, of sterile water, one hour prior to the first cytotoxic treatment.
Group 7: Vehicle control. Received intra-peritoneal injection, of sterile water, on each of the three days following cytotoxic treatment.
Group 8: Vehicle control. Received intra-peritoneal injection, of sterile water, 5 minutes prior to the first cytotoxic treatment. Received one further identical injection on each of the three days following cytotoxic treatment.
On the fourth day after treatment the animals of each group were killed, and intestinal tissue harvested for histological analysis. Tissue sections were stained with haemotoxylin and eosin, and were analysed for the presence of regenerating intestinal crypts. Regenerating intestinal crypts are derived from one or more surviving clonogenic stem cells, whereas sterilised crypts (containing no surviving stem cells) disappear within two days of irradiation. The number of regenerating crypts per intestinal circumference was counted, and the mean crypt width measured. Scores for each animal were then corrected to account for the probability of preferentially scoring larger crypts according to the following equation: [formula]
For each treatment a Protection Factor was calculated using the following equation: corrected crypts/circumference treated corrected crypts/circumference untreated (vehicle)

digestive epithelia = assay: Diarrhoea prevention assay, 14 Gy X-ray partial body radiation; assay type: in vivo, mice; conditions: for incidence of diarrhoea (perianal soilage): 5 mice
Description: Diarrhoea Prevention Assay The ability of foscarnet (phosphonoformic acid trisodium salt hexahydrate) to prevent diarrhoea following radiological injury to digestive epithelia was investigated. The model of radiological insult used was treatment with 14 Gy X-ray partial body radiation (head and thorax lead shielded) at a dose rate of 0.7 Gy/minute. Such radiation treatment provides a model of radiotherapy administered to patients undergoing treatment for cancer. Three experimental groups, each of five mice, were established as set out below: Group 1: Received intra-peritoneal injection, containing 50 mg foscarnet/kilogram bodyweight, in sterile water, one hour prior to radiation treatment. Received one further identical injection on each of the next five days following radiation treatment. Group 2: Received intra-peritoneal injection, containing 100 mg foscarnet/kilogram bodyweight, in sterile water, one hour prior to radiation treatment. Received one further identical injection on each of the next five days following radiation treatment. Group 3: Vehicle control. […] Received intra-peritoneal injection, of sterile water, one hour prior to radiation treatment. Received one further identical injection on each of the next five days following radiation treatment. The incidences of both diarrhoea (measured by assessing perianal soilage twice daily) and morbidity among experimental animals were measured over the course of the seven days following radiation treatment.

[2] = 400 mg/kg 5FU x 2 6 hours apart plus 50 mg foscarnet/kg -5 minutes, D1, D2, D3, group Ave
[3] = 400 mg/kg 5FU x 2 6 hours apart plus 50 mg foscarnet/kg -5 minutes, D1, D2, D3, individual mice
[4] = 400 mg/kg 5FU x 2 6 hours apart plus 50 mg foscarnet/kg -1 hr only, group Ave
[5] = 400 mg/kg 5FU x 2 6 hours apart plus 50 mg foscarnet/kg -1 hr only, individual mice
[6] = 400 mg/kg 5FU x 2 6 hours apart plus 50 mg foscarnet/kg -1 hr, D1, D2, D3, group Ave
[7] = 400 mg/kg 5FU x 2 6 hours apart plus 50 mg foscarnet/kg -1 hr, D1, D2, D3, individual mice
[8] = 400 mg/kg 5FU x 2 6 hours apart plus 50 mg foscarnet/kg D1, D2, D3, group Ave
[9] = 400 mg/kg 5FU x 2 6 hours apart plus 50 mg foscarnet/kg D1, D2, D3, individual mice
[10] = group 1: 50 mg/kg foscarnet 1 hr prior to first 5-Flurouracil dose (400 mg/kg x 2) and 3 days after

Which “Protection Factor” value ([1]; 50 mg foscarnet/kg 5 minutes prior to 1st dose of 5-Flurouracil (400 mg/kg x 2 6 hrs apart) and D1, D2 & D3) does the source give for O=C(O)P(=O)(O)O [foscarnet, phosphonoformic acid trisodium salt hexahydrate] here?
The value was 1.11.

And the “Protection Factor” value ([1]; 50 mg foscarnet/kg 1 hr prior to 1st dose of 5-Flurouracil (400 mg/kg x 2 6 hrs apart))?
The value was 1.12.

And the “Protection Factor” value ([1]; 50 mg foscarnet/kg 1 hr prior to 1st dose of 5-Flurouracil (400 mg/kg x 2 6 hrs apart) and D1, D2 & D3)?
The value was 1.62.

And the “Protection Factor” value ([1]; 50 mg foscarnet/kg D1, D2, D3 following 5-Flurouracil (400 mg/kg x 2 6 hrs apart))?
Its value is 1.13.

What about the corrected crypts/circumference [1, 2] of the same compound?
The corrected crypts/circumference was 25.12.

What about the no. crypts/circumference [1, 2] of the same compound?
Its no. crypts/circumference is 26.97.

And the corrected crypts/circumference [1, 3]?
Its corrected crypts/circumference is 13.01 and 39.74 and 38.64 and 15.78 and 24.39 and 19.14.

And the no. crypts/circumference [1, 3]?
The no. crypts/circumference was 13.20 and 46.50 and 40.10 and 16.30 and 24.30 and 21.40.

And the corrected crypts/circumference [1, 4]?
Its corrected crypts/circumference is 22.70.

What about the no. crypts/circumference [1, 4] of the same compound?
Its no. crypts/circumference is 24.62.

And the corrected crypts/circumference [1, 5]?
The corrected crypts/circumference was 35.09 and 16.52 and 22.90 and 30.41 and 11.28 and 20.01.

And the no. crypts/circumference [1, 5]?
Its no. crypts/circumference is 42.50 and 16.20 and 24.70 and 32.80 and 11.70 and 19.80.

What about the corrected crypts/circumference [1, 6] of the same compound?
Its corrected crypts/circumference is 29.76.

And the no. crypts/circumference [1, 6]?
The no. crypts/circumference was 31.28.

What about the corrected crypts/circumference [1, 7] of the same compound?
The corrected crypts/circumference was 42.10 and 17.28 and 33.67 and 29.92 and 31.88 and 23.71.

And the no. crypts/circumference [1, 7]?
The no. crypts/circumference was 44.90 and 16.00 and 35.70 and 32.50 and 34.30 and 24.30.

And the corrected crypts/circumference [1, 8]?
The corrected crypts/circumference was 19.78.

And the no. crypts/circumference [1, 8]?
The no. crypts/circumference was 19.58.

What about the corrected crypts/circumference [1, 9] of the same compound?
Its corrected crypts/circumference is 13.74 and 9.34 and 35.87 and 23.12 and 21.45 and 15.14.

And the no. crypts/circumference [1, 9]?
The no. crypts/circumference was 14.10 and 8.50 and 35.50 and 24.10 and 19.20 and 16.10.

What about the “numbers of intestinal crypts after exposure to 5-Flurouracil” value ([1]; Groups 1, 2, 3 and 4 (50 mg foscarnet/kg regimens)) of the same compound?
Its value is “increased numbers of intestinal crypts”.

And the “more crypts compared to mice treated with vehicle alone” value [1, 10]?
The value was about 50%.

And the “more small intestinal clonogenic stem cells survived” value [1, 10]?
The value was “at least 50%”.

What about the “protection against the deleterious effects of radiation treatment” value (digestive epithelia; 50 mg per kilogram bodyweight, 14 Gy partial body) of the same compound?
Its value is “protects completely”.

What about the “incidence of diarrhoea (perianal soilage)” value (digestive epithelia; 50 mg/kg intra-peritoneal 1 hr before 14 Gy and daily for 5 days, Day 3) of the same compound?
Its value is “No”.

And the “incidence of diarrhoea (perianal soilage)” value (digestive epithelia; 50 mg/kg intra-peritoneal 1 hr before 14 Gy and daily for 5 days, Day 4)?
The value was “No diarrhoea”.

What about the “incidence of diarrhoea (perianal soilage)” value (digestive epithelia; 50 mg/kg intra-peritoneal 1 hr before 14 Gy and daily for 5 days, Day 5) of the same compound?
The value was “No diarrhoea”.

What about the “incidence of diarrhoea (perianal soilage)” value (digestive epithelia; 50 mg/kg intra-peritoneal 1 hr before 14 Gy and daily for 5 days, Day 6) of the same compound?
The value was “No diarrhoea”.

What about the “incidence of diarrhoea (perianal soilage)” value (digestive epithelia; 50 mg/kg intra-peritoneal 1 hr before 14 Gy and daily for 5 days, Day 7) of the same compound?
Its value is “No diarrhoea”.

And the “incidence of diarrhoea or associated morbidity compared to vehicle controls” value (digestive epithelia; 100 mg per kilogram bodyweight, 14 Gy partial body)?
The value was “reduced incidence of diarrhoea or associated morbidity”.

What about the “incidence of diarrhoea (perianal soilage)” value (digestive epithelia; 100 mg/kg intra-peritoneal 1 hr before 14 Gy and daily for 5 days, Day 3) of the same compound?
The value was “No”.

And the “incidence of diarrhoea (perianal soilage)” value (digestive epithelia; 100 mg/kg intra-peritoneal 1 hr before 14 Gy and daily for 5 days, Day 4)?
Its value is “No diarrhoea”.

And the “incidence of diarrhoea (perianal soilage)” value (digestive epithelia; 100 mg/kg intra-peritoneal 1 hr before 14 Gy and daily for 5 days, Day 5)?
The value was “No diarrhoea”.

And the “incidence of diarrhoea (perianal soilage)” value (digestive epithelia; 100 mg/kg intra-peritoneal 1 hr before 14 Gy and daily for 5 days, Day 6)?
The value was 2 mice had.

And the “incidence of diarrhoea (perianal soilage)” value (digestive epithelia; 100 mg/kg intra-peritoneal 1 hr before 14 Gy and daily for 5 days, Day 7)?
The value was 1 mouse had diarrhoea.
